Data as given in ChEMBL document CHEMBL3880440, “Antagonists of the toll-like receptor 1/2 complex” (2014).
pIC50: −log10 of the molar value. Activity calls are given as the source filed them. The rule behind the calls is not given here.

Experiments:
Toll-like receptor 1/2 = Toll-like receptor 1/2 (Mus musculus, UniProt Q9EPQ1+Q9QUN7); assay: (§1) Antagonist activity at TLR1/2 in mouse RAW264.7 cells assessed as inhibition of Pam3CSK4-induced receptor activation by measuring NO production after 24 hrs; assay type: cell-based
[1] = Antiinflammatory activity in hippocampus (unknown origin) assessed as inhibition of Pam3CSK4-induced IL-1beta mRNA expression level at 5 to 50 ng coadministered with Pam3CSK4 via intra-cisterna magna measured after 2 hrs by RT-PCR analysis; assay type: functional
RAW264.7 [2] = assay: Inhibition of Pam3CSK4-induced IL-1beta production in mouse RAW264.7 cells at 8 uM after 24 hrs by ELISA; assay type: functional, cell-based
[3] = biological target: T1, Toll-like receptor 1/2 (Mus musculus) (UniProt Q9QUN7+Q9EPQ1); assay: as §1; assay type: cell-based
RAW264.7 [4] = assay: Inhibition of Pam3CSK4-induced TNF-alpha production in mouse RAW264.7 cells at 8 uM after 24 hrs by ELISA; assay type: functional, cell-based
[5] = biological target: T1, Toll-like receptor 1/2 (Mus musculus); assay: Antagonist activity at TLR1/2 in mouse RAW264.7 cells assessed as inhibition of Pam3CSK4-induced receptor activation by measuring NO production at 3 uM after 24 hrs; assay type: cell-based
[6] = biological target: Toll-like receptor 1/2 (Homo sapiens) (UniProt O60603+Q15399); assay: Antagonist activity at TLR1/2 in primary microglial cells (unknown origin) assessed as reduction in Pam3CSK4-induced IL-1beta mRNA expression level after 2 hrs; assay type: cell-based
[7] = Antiinflammatory activity in hippocampus (unknown origin) assessed as inhibition of Pam3CSK4-induced TNF-alpha mRNA expression level at 5 to 50 ng coadministered with Pam3CSK4 via intra-cisterna magna measured after 2 hrs by RT-PCR analysis; assay type: functional
[8] = Cytotoxicity against mouse RAW264.7 cells assessed as decrease in cell viability at 8 uM by MTT assay; assay type: cell-based; conditions: raw264.7, 8 µM
[9] = Antiinflammatory activity in hippocampus (unknown origin) assessed as inhibition of Pam3CSK4-induced IL-6 mRNA expression level at 5 to 50 ng coadministered with Pam3CSK4 via intra-cisterna magna measured after 2 hrs by RT-PCR analysis; assay type: functional
[10] = Cytotoxicity against mouse RAW264.7 cells assessed as decrease in cell viability at 3 uM by MTT assay; assay type: cell-based; conditions: raw264.7, 3 µM

Toll-like receptor 1/2, sequence (Q9QUN7 whole entry): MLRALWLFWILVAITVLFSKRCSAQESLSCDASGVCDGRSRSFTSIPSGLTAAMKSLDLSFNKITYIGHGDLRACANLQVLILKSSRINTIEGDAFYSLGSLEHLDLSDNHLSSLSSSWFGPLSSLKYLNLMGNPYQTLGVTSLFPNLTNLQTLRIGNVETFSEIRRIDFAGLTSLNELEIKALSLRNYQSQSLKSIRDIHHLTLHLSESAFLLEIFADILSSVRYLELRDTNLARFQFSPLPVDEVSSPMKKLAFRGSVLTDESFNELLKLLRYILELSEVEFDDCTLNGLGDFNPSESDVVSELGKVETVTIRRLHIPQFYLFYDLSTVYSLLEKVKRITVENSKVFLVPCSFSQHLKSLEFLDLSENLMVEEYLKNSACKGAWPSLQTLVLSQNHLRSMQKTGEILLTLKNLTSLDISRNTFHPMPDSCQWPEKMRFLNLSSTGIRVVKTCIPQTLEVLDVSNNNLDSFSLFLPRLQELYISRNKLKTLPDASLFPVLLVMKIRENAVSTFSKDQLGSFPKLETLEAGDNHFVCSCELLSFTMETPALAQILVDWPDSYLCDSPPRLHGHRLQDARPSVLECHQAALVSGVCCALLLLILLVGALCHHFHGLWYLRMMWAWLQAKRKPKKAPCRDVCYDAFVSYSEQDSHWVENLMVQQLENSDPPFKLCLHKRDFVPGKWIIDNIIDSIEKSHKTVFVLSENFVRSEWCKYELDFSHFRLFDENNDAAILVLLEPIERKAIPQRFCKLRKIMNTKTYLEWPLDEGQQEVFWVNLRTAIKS
Toll-like receptor 1/2, sequence (Q9EPQ1 whole entry): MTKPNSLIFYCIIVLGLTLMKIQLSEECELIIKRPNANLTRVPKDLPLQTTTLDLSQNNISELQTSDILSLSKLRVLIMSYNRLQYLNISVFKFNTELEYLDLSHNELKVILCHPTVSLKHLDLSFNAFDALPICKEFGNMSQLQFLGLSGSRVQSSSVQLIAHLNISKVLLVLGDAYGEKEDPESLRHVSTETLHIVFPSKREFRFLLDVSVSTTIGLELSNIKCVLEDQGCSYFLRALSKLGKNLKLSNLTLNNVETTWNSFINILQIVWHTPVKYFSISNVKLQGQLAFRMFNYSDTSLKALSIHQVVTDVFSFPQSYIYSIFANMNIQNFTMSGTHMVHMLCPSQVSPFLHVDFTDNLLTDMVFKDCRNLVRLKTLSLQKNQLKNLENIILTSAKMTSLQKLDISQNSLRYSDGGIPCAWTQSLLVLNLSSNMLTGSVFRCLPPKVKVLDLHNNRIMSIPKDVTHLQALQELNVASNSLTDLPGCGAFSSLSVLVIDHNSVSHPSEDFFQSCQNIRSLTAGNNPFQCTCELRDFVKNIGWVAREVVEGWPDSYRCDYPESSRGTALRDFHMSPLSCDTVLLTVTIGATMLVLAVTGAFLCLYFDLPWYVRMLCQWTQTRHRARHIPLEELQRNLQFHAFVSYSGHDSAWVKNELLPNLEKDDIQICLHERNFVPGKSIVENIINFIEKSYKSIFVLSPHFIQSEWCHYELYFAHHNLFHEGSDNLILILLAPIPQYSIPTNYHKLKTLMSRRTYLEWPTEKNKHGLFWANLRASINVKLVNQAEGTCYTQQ

| SMILES | pIC50 (Toll-like receptor 1/2) | inhibition [5] [%] | Activity [10] | other results |
| --- | --- | --- | --- | --- |
| CCCCCCCCCCOC(=O)c1cc(O)c(=O)c2c(O)c(O)c(OC)cc2c1 | 6.00 |  |  |  |
| CCCCCCOC(=O)c1cc(O)c(=O)c2c(O)c(O)c(OC)cc2c1 |  | > 70 |  | inhibition [1]: Active; inhibition (RAW264.7 [2]): Active; inhibition [3]: Dose-dependent effect; inhibition (RAW264.7 [4]): Active; inhibition [6]: Dose-dependent effect; inhibition [7]: Active; Activity [8]: Non-Toxic; inhibition [9]: Active |
| COc1cccc(NC(S)=Nc2ccc(O)cc2)c1 |  | > 70 | Non-Toxic |  |
| CCCCCCCCOC(=O)c1cc(O)c(=O)c2c(O)c(O)c(OC)cc2c1 | 6.14 |  |  |  |
| C=C(C)[C@H]1Cc2c(ccc3c2O[C@@H]2COc4cc(OC)c(OC)cc4[C@@H]2C3=O)O1 [ROTENONE] |  | > 70 | Non-Toxic |  |
| O=c1c(O)cccc2cc(O)c(O)c(O)c12 [PURPUROGALLIN] |  | > 70 | Non-Toxic |  |
| CCCCCCCCCCCCCCOC(=O)c1cc(O)c(=O)c2c(O)c(O)c(OC)cc2c1 | 5.49 |  |  |  |
| O=C(/C=C/c1ccc(O)c(O)c1)c1ccccc1O |  | > 70 | Non-Toxic |  |
| CC(=O)Oc1cc2c(c(OC(C)=O)c1OC(C)=O)C(=O)C1(OC(C)=O)C=CC2C2C(=O)OC(=O)C21 (stereo not given) | 4.83 |  |  |  |
| CCCCNC(=O)c1cc(O)c(=O)c2c(O)c(O)c(OC)cc2c1 | 5.90 |  |  |  |
| COc1cc2c(c(OC)c1OC)C(=O)C1(OC)C=CC2C2C(=O)OC(=O)C21 (stereo not given) | 4.13 |  |  |  |
| CCOC(=O)c1cc(O)c(=O)c2c(O)c(O)c(OC)cc2c1 | 5.55 |  |  |  |
| O=C(O)c1cc(O)c(=O)c2c(O)c(O)ccc2c1 [7-DESHYDROXYPYROGALLIN-4-CARBOXYLIC ACID] | 4.78 |  |  |  |
| COc1cc2cccc(OC)c(=O)c2c(O)c1OC | 4.93 |  |  |  |
| CCCCOC(=O)c1cc(O)c(=O)c2c(O)c(O)c(OC)cc2c1 | 5.55 |  |  |  |
| COc1cc2cc(C(=O)OC(C)C)cc(O)c(=O)c2c(O)c1O | 5.61 |  |  |  |
| CC(=O)/C=C/Nc1ccccc1O |  | > 70 | Non-Toxic |  |
| O=C(Nc1ccc(Cl)c(Cl)c1)Nc1ccccc1O |  | > 70 | Non-Toxic |  |
| CN1CCN(C(=O)/C=C/c2ccc([N+](=O)[O-])o2)CC1 |  | > 70 | Non-Toxic |  |
| CC(=O)Oc1cc2cccc(OC(C)=O)c(=O)c2c(O)c1OC(C)=O | 5.85 |  |  |  |
| O=c1c(O)cccc2ccc(O)c(O)c12 | 5.65 |  |  |  |
| COC(=O)c1cc(O)c(=O)c2c(O)c(O)ccc2c1 [METHYL 7-DESHYDROXYPYROGALLIN-4-CARBOXYLATE] | 5.05 |  |  |  |
| CC(=O)Oc1cc2cccc(O)c(=O)c2c(O)c1O | 5.32 |  |  |  |
| O=c1c(O)cccc2cc(F)c(O)c(O)c12 | 4.64 |  |  |  |
| CC(=O)Oc1cc2cccc(OC(C)=O)c(=O)c2c(OC(C)=O)c1OC(C)=O | 5.63 |  |  |  |
| O=[N+]([O-])c1cc(Cl)cc2c1nc(NCCO)c1ccccc12 |  | > 70 | Non-Toxic |  |
| Cc1cc(O)c(O)c2c(=O)c(O)cccc12 | 5.50 |  |  |  |
| Oc1ccc(/N=C/c2c(O)ccc3ccccc23)cc1 |  | > 70 | Non-Toxic |  |
